The results in this text go back to PubChem BioAssay (NCI).

Each structure is given as a SMILES string.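 96-well plates; 48 h exposure; 5 concentrations. Endpoints by linear interpolation between flanking doses. Not reached: highest tested concentration assigned. GI50: concentration for 50% inhibition of growth. TGI marks complete inhibition of growth.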 Where only a bound is given, the exact number is not on record here.

Test in all cases: inhibition of tumour cell growth, NCI panel, 48 h
Assay [1] relates to CAKI-1 renal.
The subject of assay [2] is EKVX NSCLC.
The test system of assay [3] is HOP-62 NSCLC.
Assay [4] has as its system HT29 colon.
Assay [5] deals with K-562 leukemia.
Assay [6] concerns MDA-MB-435.
Assay [7] concerns OVCAR-3 ovarian.
Assay [8] deals with OVCAR-5 ovarian.
In assay [9] the test system is SF-539 CNS.
The subject of assay [10] is SN12C renal.
Assay [11] has as its system SNB-19 CNS.
The test system of assay [12] is SW-620 colon.
In assay [13] the test system is TK-10 renal.
For assay [14], the system named is U251 CNS.
The subject of assay [15] is CCRF-CEM leukemia.
In assay [16] the test system is SR leukemia.
The test system of assay [17] is MCF7 breast.
Assay [18] has as its system PC-3 prostate.

On to `N#Cc1c2ccc([N+](=O)[O-])cc2c(=O)n2c1sc1ccc(C(F)(F)F)cc12`, for which the TGI in assay [1], in assay [2], in assay [3], in assay [4], in assay [5] and in [6] was greater than 100 µM in each case. The TGI in [7], in assay [8], in assay [9], in assay [10], in assay [11] and in [12] was greater than 100 µM in each case. Further, the TGI in assay [13] and in assay [14] was greater than 100 µM each time.

With `COc1ccc2c(c1)c(=O)c1ccccc1n2/C=C/C(=O)O`, the TGI was greater than 100 µM in assay [1]; greater than 67.8 µM in assay [15]; greater than 100 µM in assay [2]; greater than 100 µM in assay [3]; greater than 100 µM in assay [4]; greater than 100 µM in assay [5]. Besides, the TGI is greater than 100 µM in assay [7]; greater than 100 µM in assay [8]; greater than 100 µM in [9]; greater than 100 µM in assay [10]; greater than 100 µM in [11]; greater than 57.4 µM in assay [16]. Moreover, the TGI in assay [12], in assay [13] and in assay [14] was greater than 100 µM throughout.

For `CC(=O)O[C@H]1C(=O)[C@@]2(C)[C@H]([C@H](OC(=O)c3ccccc3)[C@]3(O)C[C@H](OC(=O)[C@H](OC(=O)OCCC(O)CO)[C@@H](NC(=O)c4ccccc4)c4ccccc4)C(C)=C1C3(C)C)[C@]1(OC(C)=O)CO[C@@H]1C[C@@H]2O` (some centres undefined), the TGI in assay [1] was 62.9 µM; in [15], 12.2 µM; in assay [2] it was greater than 100 µM; in assay [3], 19.9 µM; in [4] it was greater than 100 µM; in assay [5], 49.8 µM. Moreover, the TGI in assay [17] was 14.1 µM; in assay [7] it was 14.5 µM; in assay [8], 43.5 µM; in [18], greater than 100 µM; in assay [9] it was less than 0.01 µM; in assay [10], 33.6 µM. In addition, the TGI in assay [11] was greater than 100 µM; in assay [12], greater than 55.8 µM; in assay [13], greater than 44.6 µM; in assay [14] it was 19.2 µM.

As for `COc1cccc(-c2cc(=O)c3cc(OC)c(OC)cc3[nH]2)c1`, the TGI in assay [15], in assay [2], in assay [3], in assay [4], in assay [5] and in [7] was greater than 100 µM each time. Further, the TGI is 77.3 µM in assay [9]; greater than 100 µM in assay [10]; greater than 100 µM in [11]; greater than 100 µM in [16]; greater than 100 µM in assay [12]; greater than 100 µM in assay [13]. In assay [14], this compound yielded a TGI greater than 100 µM. Further, the GI50 in assay [7] was 33.5 µM.

As to `O=C1CCCCC1CN1CCCC1` (centres undefined), the TGI in assay [15], in [2], in [3], in assay [4], in assay [5] and in assay [7] was greater than 100 µM in each case. Also, the TGI in [8], in [10], in assay [16], in [12], in assay [13] and in [14] was greater than 100 µM throughout.

Regarding `O=C(O)/C=C/n1c2ccccc2c(=O)c2ccccc21`, the TGI in assay [1], in assay [15], in assay [2], in assay [3], in [4] and in assay [5] was greater than 100 µM each time. For the same compound, the TGI in assay [7], in [8], in [9], in assay [10], in assay [11] and in assay [16] was greater than 100 µM throughout. For the same compound, the TGI in assay [12] and in assay [14] was greater than 100 µM each time.

Take `COc1ccc(N2C(=O)C3c4[nH]c5ccccc5c4C4CCCCCCCCCCC4C3C2=O)cc1` (centres undefined): the TGI in [1] is greater than 100 µM; in assay [15], greater than 43.7 µM; in assay [2], greater than 52.8 µM; in assay [3] it was greater than 55 µM; in [4], 18.9 µM; in assay [5] it was greater than 78.3 µM. The TGI in [7] is 26.4 µM; in assay [8], greater than 64.6 µM; in assay [9], greater than 33.2 µM; in [10], 19.9 µM; in assay [11] it was 40.8 µM; in assay [16] it was greater than 20.3 µM. For the same compound, the figures for the TGI in [12], in assay [13] and in assay [14] were 18.7 µM, greater than 73.2 µM and 22.4 µM, respectively.

`COc1ccc(N2C(=O)C3c4[nH]c5ccc(OC)cc5c4C4CCC(C(C)(C)C)CC4C3C2=O)cc1` (centres undefined): the TGI is greater than 100 µM in assay [1]; greater than 100 µM in assay [15]; 92.3 µM in assay [2]; 52.5 µM in assay [3]; greater than 100 µM in assay [4]; greater than 100 µM in [5]. Further, the TGI was greater than 100 µM in assay [7]; greater than 100 µM in assay [8]; 55.1 µM in assay [9]; greater than 100 µM in assay [10]; greater than 100 µM in [11]; greater than 100 µM in assay [16]. Besides, the TGI was greater than 100 µM in assay [12], greater than 100 µM in assay [13] and 44.8 µM in assay [14].

Turning to `COc1cc2c(cc1OCCCOc1cc(-c3ccc(F)cc3)nc(C)n1)N=C[C@@H]1CCCN1C2=O`, the TGI in assay [1] was 31.9 µM; in assay [15], 53.9 µM; in [2], 39.3 µM; in assay [4], greater than 100 µM; in [17], greater than 100 µM; in assay [6], 28.5 µM. Further, the TGI in assay [7] was determined as 29.4 µM; in [9], 48.7 µM; in assay [10], 32.3 µM; in [11] it was 64.4 µM; in [16], 27.4 µM; in assay [12], 64 µM. The TGI was 34.5 µM in [13] and 28.7 µM in [14].
